This test deals with nursery pigs. Description: Growth performance of nursery pigs: 0-42d BWG, ADG, ADFI, FCR, with and without Mecadox (Examples 34/35). It is filed as in vivo. As to the method: Pigs: Approximately 3,240 pigs were placed in three rooms at a nursery farm with 27 pigs per pen and 15 pens per treatment using a randomized complete block design (a total of 8 treatments across 40 pens in each of 3 rooms). All pens were balanced with 14 gilts and 13 barrows. At weaning, weight, age and sow farm source were recorded. At weaning, pigs were placed with the same number of pigs from each sow farm per pen.
Allotment: Prior to allotment and each weighing event, standard weights were placed on each corner of the scale to ensure that the scale was correctly calibrated. At placement, the average weight of the pigs in each pen were determined and the data was provided as soon as possible for treatment allotment. At weaning, pens were ranked by average weight and weight blocks and pens were assigned to the ranked weights. Treatments were then randomly assigned within weight blocks. When the treatment assignments were done, pen assignments were provided also as soon as possible, and dietary treatments information was entered into the feeding system. Pigs were granted free access to feed and water throughout the trial.
Schedule: At arrival, the pigs were allotted to pens. A common pelleted diet was fed to all pigs for 7 days. This diet contained 55 ppm of Mecadox (50 g/ton). Dietary treatments were fed from day 7 to the end of the nursery phase (approximately 55 lb). Pens were allotted to dietary treatments on day 7. Diets were fed in two phases with the first phase from day 7 to 21 after weaning and the second phase from day 21 to the end of the nursery phase (day 21 to 42 after weaning).
Treatments: Dietary treatments were randomly assigned to 40 pens in each of 3 rooms for 5 replications per room and 15 replications total. The 8 treatments were structured as a 2×4 factorial with two diet types (with and without antibiotic; 55 ppm of Mecadox) and four levels of gluco-oligosaccharide (0, 200, 400 or 600 ppm). The gluco-oligosaccharides were prepared according to the procedures set forth in Examples above. The gluco-oligosaccharides were provided on a corn meal carrier, as described in Example 18, such that the 600 ppm dose was obtained with a 0.25% final diet inclusion rate (5 lb premix per ton final feed). All diets contained the same growth promoting levels of Cu and Zn at 200 ppm Cu and 2,000 ppm Zn, in the phase 2 diets and 200 ppm Cu in the phase 3 diet. The diets containing 0 and 0.25% of the premix containing the gluco-oligosaccharides were blended to form the intermediate treatments.
Diet Preparation: Diets were fed in meal form. The four diets required were the control diets for each diet type and the diets containing 0.25% gluco-oligosaccharide premix. The actual oligosaccharide levels in the test were 0, 200, 400, and 600 ppm with a carrier used such that the premix at 0.25% (5 lb/ton) will provide 600 ppm oligosaccharide.
Live Animal Data Collection: Pigs were weighed, counted and feed disappearance determined every 7 days during the experiment. Prior to each weighing event standard weights were placed on each corner of the scale to ensure proper calibration of the scale. Pig inventory, weight, removal and feed intake data were recorded and maintained throughout the trial. Data were collected on the standard data collection spreadsheet.
Statistical analysis: Pens were randomly allotted to treatments using body weight as a blocking factor. Weight block was added to the model as a random effect. Main effects and interaction between diet type and gluco-oligosaccharide level were determined. Data was analyzed for linear and quadratic effect of gluco-oligosaccharide levels.
The BWG benefit, ADG benefit, ADFI benefit, and FCR benefit were calculated for 0-42 days by taking the ratio of the respective values with respect to their corresponding controls and performing linear regression to determine the dose-effect of the gluco-oligosaccharide, resulting in the following regression equations set forth in Table 12 below. […]

Where [1] appears, read: 0-42d, Mecadox 55 ppm, Oligo 0 ppm.
Where [2] appears, read: 0-42d, from regression equations, antibiotic growth promoter alone.
Where [3] appears, read: nursery pigs, vs control, Mecadox 55 ppm, gluco-oligosaccharide 600 ppm without antibiotic (from regression).

`COC(=O)N/N=C/c1c[n+]([O-])c2ccccc2[n+]1[O-]` [Mecadox]: under setting [1], the ADFI is given as 1.37 lbs/day, the ADG is 0.93 lbs/day, the BWG is on record as 40.69 lbs and the FCR was 1.47 lbs/lbs. Under setting [2], the “ADFI Benefit” value was determined as 2.4%, the “ADG Benefit” value was 3.2%, the “BWG Benefit” value is 2.5% and the “FCR Benefit” value is listed as −0.2%. In addition, for the setting “nursery pigs, vs control, Mecadox 55 ppm, gluco-oligosaccharide 600 ppm”, the “0-42d FCR” value is on record as “did not improve”. Besides, under setting [3], the “improved 0-42d ADG” value came out at 3.2%, the “improved 0-42d ADGI” value is recorded as 2.4% and the “improved 0-42d BWG” value was found to be 2.5%.
